The text below walks through data of paper PMC8162404, “Proteomimetic surface fragments distinguish targets by function” (Chemical Science, 2020).

The target of assay [1] is T1, CaM (Bos taurus, UniProt P62157).
T1 construct: made in house; host or cells: E. coli BL21 (DE3)
In words: Pull-down assay with immobilized protein and LSM libraries. To be noted: H14 library; 1:2 stoichiometry assumed; read-out: Surface mapping KD (apparent). It counts as binding, bovine. In outline: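 CaM buffer was 20 mM HEPES pH 7.4, 150 mM NaCl, 5 mM CaCl2. LSM sublibrary members ([…]) incubated 30 min, RT, with equimolar His-tagged protein on Co-NTA resin. HPLC-MS measured unbound probes; bound fraction relative to resin-only background gave dissociation constants.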

The target in assay [2] is T2, Gal-1 (Homo sapiens, UniProt P09382).
T2 construct: made in house; host or cells: E. coli BL21(DE3)
T2 sequence (P09382 whole entry): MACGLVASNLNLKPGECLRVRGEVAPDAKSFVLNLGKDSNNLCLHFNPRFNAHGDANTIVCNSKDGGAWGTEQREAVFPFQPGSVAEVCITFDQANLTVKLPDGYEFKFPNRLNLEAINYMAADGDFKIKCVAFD
Described as above. The class given is binding. To be noted: H14 library; 1:1 binding assumed; read-out: Surface mapping KD (apparent). In outline: (§1)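 Buffers were HEPES pH 7.4 with 150 mM NaCl, plus 1 mM TCEP and 1 mM CaCl2 (50 mM HEPES) for S100A4 and S100B, 1 mM TCEP for Gal-1, and no additive for RecQ-WH. Immobilized protein at 64 µM was equilibrated 30 min with the LSM sublibrary, and unbound probes were measured by LC-MS.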

Assay [3] addresses T3, S100A4 (Homo sapiens, UniProt P26447).
T3 construct: made in house; host or cells: Escherichia coli BL21(DE3)
The assay is described as above. It counts as binding. To be noted: for Kd: H14 library, 1:1 binding assumed, read-out: Surface mapping KD (apparent); for Affinity class of probe (high, medium, low) in pull-down: H14 probes selected for validation. In outline:
as §1

Assay [4] has as its target T4, S100B (Homo sapiens, UniProt P04271).
T4 construct: made in house; host or cells: Escherichia coli BL21(DE3)
T4 sequence (P04271 1-92): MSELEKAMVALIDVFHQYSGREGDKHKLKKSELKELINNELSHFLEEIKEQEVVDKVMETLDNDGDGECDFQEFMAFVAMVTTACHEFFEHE
The assay is described as above. It counts as binding. To be noted: for Kd: H14 library, 1:1 binding assumed, read-out: Surface mapping KD (apparent); for Affinity class of probe (high, medium, low) in pull-down: H14 probes selected for validation. An outline of the steps: as §1

The target of assay [5] is T5, RecQ-WH (Escherichia coli, UniProt P15043).
T5 construct: coding for residues 408– 523 of E. coli RecQ; made in house; host or cells: E. coli BL21(DE3)
T5 sequence (P15043 408-523): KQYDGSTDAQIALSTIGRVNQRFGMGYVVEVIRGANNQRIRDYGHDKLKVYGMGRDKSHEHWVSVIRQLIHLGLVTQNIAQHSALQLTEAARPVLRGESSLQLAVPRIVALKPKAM
The description is as above. To be noted: H14 library; 1:1 binding assumed; read-out: Surface mapping KD (apparent). Details: species or system E. coli. An outline of the steps:
as §1

For assay [6], the target named is T1, CaM. Description: Competition pull-down with native ligand TRPV1-Ct15. It counts as binding, bovine. To be noted: H14 library; competitor peptide 200 µM; read-out: Surface mapping KD (apparent), competition.
The target of assay [7] is T3, S100A4. Description: Competition pull-down with native ligand NMIIA (1893–1923). To be noted: H14 library; competitor peptide 200 µM; read-out: Surface mapping KD (apparent), competition. It counts as binding.
The target of assay [8] is T4, S100B. In words: Competition pull-down with native ligand RSK1 (689–735). To be noted: H14 library; competitor peptide 200 µM; read-out: Surface mapping KD (apparent), competition. It counts as binding.
In assay [9] the target is T5, RecQ-WH. In words: Competition pull-down with native ligand SSB-Ct8. The class given is binding, E. coli. To be noted: H14 library; competitor peptide 200 µM; read-out: Surface mapping KD (apparent), competition.
The target of assay [10] is T2, Gal-1. Description: Competition pull-down with lactose. To be noted: H14 library; lactose 10 mM; read-out: Surface mapping KD (apparent), competition. It counts as binding. In outline: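 His6-tagged proteins immobilized on Co-NTA resin at 64 µM final with 64-member LSM foldamer sublibraries (1 M each, as printed) in pH 7.4 HEPES/NaCl buffers (Ca2+/TCEP per target), 30 min RT; competitor peptides 200 µM final, lactose 10 mM for Gal-1. Bound fractions from LC-MS loss vs protein-free resin; KD assuming 1:1 binding.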

T3 sequence (P26447 whole entry): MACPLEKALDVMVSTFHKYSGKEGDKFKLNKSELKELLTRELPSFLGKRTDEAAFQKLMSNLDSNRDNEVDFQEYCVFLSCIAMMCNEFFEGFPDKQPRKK

As for `CC(C)C[C@@H](CC(=O)N[C@H]1CCCC[C@@H]1C(=O)N[C@H]1CCCC[C@@H]1C(=O)N[C@H](CC(=O)N[C@H]1CCCC[C@@H]1C(N)=O)Cc1ccccc1)NC(=O)[C@H]1CCCC[C@@H]1N` [H14 LF], the Kd at CaM [1] is 11 µM; on Gal-1 [2] it was 25 µM; on S100A4 [3], 3 µM; on S100B [4] it was 11 µM; on RecQ-WH [5], 186 µM; on CaM [6], 162 µM. For the same compound, the Kd at S100A4 [7] was determined as 140 µM; at S100B [8] it was 71 µM; on RecQ-WH [9] it was 439 µM; at Gal-1 [10], 43 µM.

Consider `NC(=O)[C@H]1CCCC[C@@H]1NC(=O)C[C@H](Cc1c[nH]c2ccccc12)NC(=O)[C@H]1CCCC[C@@H]1NC(=O)[C@H]1CCCC[C@@H]1NC(=O)C[C@H](Cc1ccccc1)NC(=O)[C@H]1CCCC[C@@H]1N` [H14 FW], for which the Kd at CaM [1] was 0.7 µM; on Gal-1 [2] it was 81 µM; on S100A4 [3], 24 µM; on S100B [4], 27 µM; at RecQ-WH [5], 63 µM; on CaM [6], 118 µM. Further, the Kd at S100A4 [7] is 440 µM; on S100B [8], 177 µM; on RecQ-WH [9], 153 µM; at Gal-1 [10] it was 122 µM.

In the case of `CC[C@H](C)[C@@H](CC(=O)N[C@H]1CCCC[C@@H]1C(N)=O)NC(=O)[C@H]1CCCC[C@@H]1NC(=O)[C@H]1CCCC[C@@H]1NC(=O)C[C@H](CC(C)C)NC(=O)[C@H]1CCCC[C@@H]1N` [H14 LI], the Kd was found to be 16 µM at CaM [1]; 24 µM at Gal-1 [2]; 2 µM at S100A4 [3]; 19 µM on S100B [4]; 160 µM on RecQ-WH [5]; 280 µM at CaM [6]. The Kd came to 101 µM on S100A4 [7], 147 µM at S100B [8], 355 µM at RecQ-WH [9] and 50 µM at Gal-1 [10].

On to `CC(C)C[C@@H](CC(=O)N[C@H]1CCCC[C@@H]1C(N)=O)NC(=O)[C@H]1CCCC[C@@H]1NC(=O)[C@H]1CCCC[C@@H]1NC(=O)C[C@H](CC(C)C)NC(=O)[C@H]1CCCC[C@@H]1N` [H14 LL], for which the Kd at CaM [1] stood at 16 µM; at Gal-1 [2], 17 µM; on S100A4 [3], 1 µM; on S100B [4], 28 µM; on RecQ-WH [5], 206 µM; at CaM [6], 276 µM. Moreover, the Kd on S100A4 [7] worked out at 117 µM; on S100B [8], 147 µM; at RecQ-WH [9] it was 253 µM; on Gal-1 [10], 32 µM.

As to `NC(=O)[C@H]1CCCC[C@@H]1NC(=O)C[C@H](Cc1c[nH]c2ccccc12)NC(=O)[C@H]1CCCC[C@@H]1NC(=O)[C@H]1CCCC[C@@H]1NC(=O)C[C@H](Cc1c[nH]c2ccccc12)NC(=O)[C@H]1CCCC[C@@H]1N` [H14 WW], the Kd on CaM [1] stood at 1.2 µM; at Gal-1 [2], 30 µM; at S100A4 [3], 23 µM; at S100B [4], 19 µM; at RecQ-WH [5], 40 µM; at CaM [6], 35 µM. Besides, the Kd at S100A4 [7] is 462 µM; at S100B [8], 138 µM; at RecQ-WH [9], 84 µM; at Gal-1 [10], 51 µM. The results for the “Affinity class of probe (high, medium, low) in pull-down” value (from here on “Affinity class of probe”) at S100A4 [3] and at S100B [4] were “medium” and “high”, respectively.

As to `CC[C@H](C)[C@@H](CC(=O)N[C@H]1CCCC[C@@H]1C(N)=O)NC(=O)[C@H]1CCCC[C@@H]1NC(=O)[C@H]1CCCC[C@@H]1NC(=O)C[C@@H](NC(=O)[C@H]1CCCC[C@@H]1N)[C@@H](C)CC` [H14 II], the Kd on CaM [1] came out at 9 µM; on Gal-1 [2], 24 µM; at S100A4 [3], 2 µM; on S100B [4] it was 19 µM; at RecQ-WH [5], 160 µM; at CaM [6], 280 µM. Further, the Kd came to 101 µM at S100A4 [7], 147 µM at S100B [8], 364 µM at RecQ-WH [9] and 50 µM on Gal-1 [10].

Turning to `CC[C@H](C)[C@@H](CC(=O)N[C@H]1CCCC[C@@H]1C(=O)N[C@H]1CCCC[C@@H]1C(=O)N[C@H](CC(=O)N[C@H]1CCCC[C@@H]1C(N)=O)Cc1ccccc1)NC(=O)[C@H]1CCCC[C@@H]1N` [H14 IF], the Kd at CaM [1] is 9 µM; on Gal-1 [2] it was 33 µM; at S100A4 [3] it was 2 µM; at S100B [4] it was 9 µM; on RecQ-WH [5], 186 µM; at CaM [6], 102 µM. The Kd at S100A4 [7] stood at 162 µM; on S100B [8], 64 µM; on RecQ-WH [9], 439 µM; at Gal-1 [10] it was 53 µM. For the same compound, the “Affinity class of probe” value on S100A4 [3] and at S100B [4] was “high” each time.

Take `NC(=O)[C@H]1CCCC[C@@H]1NC(=O)C[C@H](Cc1ccc(O)cc1)NC(=O)[C@H]1CCCC[C@@H]1NC(=O)[C@H]1CCCC[C@@H]1NC(=O)C[C@H](Cc1c[nH]c2ccccc12)NC(=O)[C@H]1CCCC[C@@H]1N` [H14 WY]: the Kd at CaM [1] amounted to 2 µM; on Gal-1 [2] it was 145 µM; at S100A4 [3], 35 µM; on S100B [4] it was 66 µM; on RecQ-WH [5], 50 µM; on CaM [6] it was 119 µM. The Kd on S100A4 [7] is 367 µM; at S100B [8] it was 104 µM; at RecQ-WH [9], 193 µM; on Gal-1 [10], 222 µM.

`CC(C)C[C@@H](CC(=O)N[C@H]1CCCC[C@@H]1C(=O)N[C@H]1CCCC[C@@H]1C(=O)N[C@H](CC(=O)N[C@H]1CCCC[C@@H]1C(N)=O)Cc1c[nH]c2ccccc12)NC(=O)[C@H]1CCCC[C@@H]1N` [H14 LW]: the Kd on CaM [1] turned out to be 0.4 µM; at Gal-1 [2], 38 µM; on S100A4 [3], 8 µM; on S100B [4] it was 21 µM; at RecQ-WH [5], 195 µM; at CaM [6], 88 µM. In addition, the Kd at S100A4 [7] is 244 µM; on S100B [8], 67 µM; at RecQ-WH [9], 315 µM; on Gal-1 [10], 65 µM.

As to `CC[C@H](C)[C@@H](CC(=O)N[C@H]1CCCC[C@@H]1C(N)=O)NC(=O)[C@H]1CCCC[C@@H]1NC(=O)[C@H]1CCCC[C@@H]1NC(=O)C[C@H](Cc1ccccc1)NC(=O)[C@H]1CCCC[C@@H]1N` [H14 FI], the Kd was 0.6 µM on CaM [1]; 102 µM on Gal-1 [2]; 9 µM at S100A4 [3]; 21 µM at S100B [4]; 79 µM at RecQ-WH [5]; 121 µM on CaM [6]. Moreover, the Kd was determined as 280 µM at S100A4 [7], 202 µM on S100B [8], 266 µM at RecQ-WH [9] and 164 µM on Gal-1 [10].

As to `CC[C@H](C)[C@@H](CC(=O)N[C@H]1CCCC[C@@H]1C(=O)N[C@H]1CCCC[C@@H]1C(=O)N[C@H](CC(=O)N[C@H]1CCCC[C@@H]1C(N)=O)CC(C)C)NC(=O)[C@H]1CCCC[C@@H]1N` [H14 IL], the Kd worked out at 9 µM on CaM [1]; 24 µM on Gal-1 [2]; 2 µM at S100A4 [3]; 19 µM at S100B [4]; 206 µM at RecQ-WH [5]; 276 µM at CaM [6]. The Kd stood at 101 µM on S100A4 [7], 147 µM at S100B [8], 266 µM at RecQ-WH [9] and 50 µM on Gal-1 [10]. In addition, the “Affinity class of probe” value at S100A4 [3] and on S100B [4] was “high” each time.

In the case of `CC[C@H](C)[C@@H](CC(=O)N[C@H]1CCCC[C@@H]1C(=O)N[C@H]1CCCC[C@@H]1C(=O)N[C@H](CC(=O)N[C@H]1CCCC[C@@H]1C(N)=O)Cc1c[nH]c2ccccc12)NC(=O)[C@H]1CCCC[C@@H]1N` [H14 IW], the Kd on CaM [1] was 0.4 µM; on Gal-1 [2], 38 µM; on S100A4 [3] it was 8 µM; on S100B [4] it was 21 µM; at RecQ-WH [5] it was 195 µM; on CaM [6], 88 µM. Also, the Kd on S100A4 [7] worked out at 244 µM; on S100B [8] it was 67 µM; on RecQ-WH [9], 315 µM; at Gal-1 [10] it was 65 µM.
